Measurements as given in PubChem BioAssay AID1259407 (Chemical Carcinogenesis Research Information System (CCRIS), 2018).
Active and inactive are the calls of the source. The rule behind the calls is not given here.

Test system: CCRIS mutagenicity, Ames/micronucleus/aberration tests
Experiment: CCRIS mutagenicity studies
[1] = Test System: AMES SALMONELLA TYPHIMURIUM, Strain/Indicator: TA98, Metabolic Activation: NONE, Method: PREINCUBATION
[2] = Test System: AMES SALMONELLA TYPHIMURIUM, Strain/Indicator: TA100, Metabolic Activation: NONE, Method: PREINCUBATION
[3] = Test System: AMES SALMONELLA TYPHIMURIUM, Strain/Indicator: TA1535, Metabolic Activation: NONE, Method: PREINCUBATION

SMILES: O=C(O)c1cc2ccccc2cc1O
- mutagenic call (End Point: In vitro chromosomal aberrations, Test System: Chinese hamster lung (CHL/IU) cells, Metabolic Activation: Rat, Liver, S9, Phenobarbital and 5,6-benzoflavone): active; positive (structural changes and ploidy). precipitation of test chemical at 1.0
- mutagenic call [1]: inactive; negative
- mutagenic call (Test System: AMES SALMONELLA TYPHIMURIUM, Strain/Indicator: TA98, Metabolic Activation: RAT LIVER S-9, PHENOBARBITAL AND BETA-NAPHTHOFLAVONE, Method: PREINCUBATION): inactive; negative
- mutagenic call (Test System: AMES SALMONELLA TYPHIMURIUM, Strain/Indicator: TA98, Metabolic Activation: RAT, LIVER, S-9, KC 500, Method: PREINCUBATION): inactive; negative
- mutagenic call [2]: inactive; negative
- mutagenic call (Test System: AMES SALMONELLA TYPHIMURIUM, Strain/Indicator: TA100, Metabolic Activation: RAT LIVER S-9, PHENOBARBITAL AND BETA-NAPHTHOFLAVONE, Method: PREINCUBATION): inactive; negative
- mutagenic call (Test System: AMES SALMONELLA TYPHIMURIUM, Strain/Indicator: TA100, Metabolic Activation: RAT, LIVER, S-9, KC 500, Method: PREINCUBATION): inactive; negative
- mutagenic call [3]: inactive; negative
- mutagenic call (Test System: AMES SALMONELLA TYPHIMURIUM, Strain/Indicator: TA1535, Metabolic Activation: RAT LIVER S-9, PHENOBARBITAL AND BETA-NAPHTHOFLAVONE, Method: PREINCUBATION): inactive; negative
- mutagenic call (Test System: AMES SALMONELLA TYPHIMURIUM, Strain/Indicator: TA1535, Metabolic Activation: RAT, LIVER, S-9, KC 500, Method: PREINCUBATION): inactive; negative
- mutagenic call (Test System: AMES SALMONELLA TYPHIMURIUM, Strain/Indicator: TA1537, Metabolic Activation: RAT LIVER S-9, PHENOBARBITAL AND BETA-NAPHTHOFLAVONE, Method: PREINCUBATION): inactive; negative
- mutagenic call (Test System: AMES SALMONELLA TYPHIMURIUM, Strain/Indicator: TA1537, Metabolic Activation: RAT, LIVER, S-9, KC 500, Method: PREINCUBATION): inactive; negative
- mutagenic call (Test System: AMES SALMONELLA TYPHIMURIUM, Strain/Indicator: TA1538, Metabolic Activation: NONE, Method: PREINCUBATION): inactive; negative
- mutagenic call (Test System: AMES SALMONELLA TYPHIMURIUM, Strain/Indicator: TA1538, Metabolic Activation: RAT LIVER S-9, PHENOBARBITAL AND BETA-NAPHTHOFLAVONE, Method: PREINCUBATION): inactive; negative
- mutagenic call (Test System: AMES SALMONELLA TYPHIMURIUM, Strain/Indicator: TA1538, Metabolic Activation: RAT, LIVER, S-9, KC 500, Method: PREINCUBATION): inactive; negative
- mutagenic call (Test System: E. COLI, Strain/Indicator: WP2UVRA/PKM101, Metabolic Activation: NONE, Method: PREINCUBATION): inactive; negative
- mutagenic call (Test System: E. COLI, Strain/Indicator: WP2UVRA/PKM101, Metabolic Activation: RAT LIVER S-9, PHENOBARBITAL AND BETA-NAPHTHOFLAVONE, Method: PREINCUBATION): inactive; negative
- mutagenic call (Test System: E. COLI, Strain/Indicator: WP2 UVRA, Metabolic Activation: NONE, Method: PREINCUBATION): inactive; negative
- mutagenic call (Test System: E. COLI, Strain/Indicator: WP2UVRA, Metabolic Activation: NONE, Method: PREINCUBATION): inactive; negative
- mutagenic call (Test System: E. COLI, Strain/Indicator: WP2UVRA, Metabolic Activation: RAT LIVER S-9, PHENOBARBITAL AND BETA-NAPHTHOFLAVONE, Method: PREINCUBATION): inactive; negative
- mutagenic call (Test System: E. COLI, Strain/Indicator: WP2 UVRA, Metabolic Activation: RAT, LIVER, S-9, KC 500, Method: PREINCUBATION): inactive; negative

SMILES: CC1=CC(O)=NS(=O)(=O)O1
- mutagenic call (End Point: In vivo micronucleus, Test System: Peripheral blood normochromatic erythrocytes, Species: Mouse, Strain/Sex: FVB.N/TgN (v-Ha-ras) Tg.AC hemizygous/Female, Route: Oral): inactive; negative
- mutagenic call (End Point: In vivo micronucleus, Test System: Peripheral blood normochromatic erythrocytes, Species: Mouse, Strain/Sex: FVB.N/TgN (v-Ha-ras) Tg.AC hemizygous/Male, Route: Oral): inactive; negative
- mutagenic call (End Point: In vivo micronucleus, Test System: Peripheral blood normochromatic erythrocytes, Species: Mouse, Strain/Sex: p53 Haploinsufficient/ Female, Route: Oral): inactive; negative
- mutagenic call (End Point: In vivo micronucleus, Test System: Peripheral blood normochromatic erythrocytes, Species: Mouse, Strain/Sex: p53 Haploinsufficient/Male, Route: Oral): active; positive
- mutagenic call (Test System: MOUSE LYMPHOMA, Strain/Indicator: L5178Y (TK+/TK-), Metabolic Activation: NONE, Method: SUSPENSION/PLATE): inactive; negative. reevaluation of results: negative
- mutagenic call (Test System: MOUSE LYMPHOMA, Strain/Indicator: L5178Y (TK+/TK-), Metabolic Activation: RAT, LIVER, S-9, AROCLOR 1254, Method: SUSPENSION/PLATE): inactive; negative. reevaluation of results: negative

SMILES: O=[N+]([O-])c1cccc2csnc12
- mutagenic call (Test System: AMES SALMONELLA TYPHIMURIUM, Strain/Indicator: TA98, Metabolic Activation: NONE, Method: STANDARD PLATE): active; positive
- mutagenic call (Test System: AMES SALMONELLA TYPHIMURIUM, Strain/Indicator: TA100, Metabolic Activation: NONE, Method: STANDARD PLATE): active; positive
- mutagenic call (Test System: AMES SALMONELLA TYPHIMURIUM, Strain/Indicator: TA100, Metabolic Activation: S-9, Method: STANDARD PLATE): active; positive
- mutagenic call (Test System: AMES SALMONELLA TYPHIMURIUM, Strain/Indicator: TA1535, Metabolic Activation: NONE, Method: STANDARD PLATE): active; positive
- mutagenic call (Test System: AMES SALMONELLA TYPHIMURIUM, Strain/Indicator: TA1535, Metabolic Activation: S-9, Method: STANDARD PLATE): inactive; negative
- mutagenic call (Test System: AMES SALMONELLA TYPHIMURIUM, Strain/Indicator: TA1537, Metabolic Activation: NONE, Method: STANDARD PLATE): active; positive
- mutagenic call (Test System: AMES SALMONELLA TYPHIMURIUM, Strain/Indicator: TA1537, Metabolic Activation: S-9, Method: STANDARD PLATE): inactive; negative

SMILES: Clc1cc(Cl)c(Cl)c(Cl)c1Cl
- mutagenic call (Test System: AMES SALMONELLA TYPHIMURIUM, Strain/Indicator: TA98, Metabolic Activation: HAMSTER, LIVER, S-9, AROCLOR 1254, Method: PREINCUBATION): inactive; negative
- mutagenic call [1]: inactive; negative
- mutagenic call (Test System: AMES SALMONELLA TYPHIMURIUM, Strain/Indicator: TA98, Metabolic Activation: RAT, LIVER, S-9, AROCLOR 1254, Method: PREINCUBATION): inactive; negative
- mutagenic call (Test System: AMES SALMONELLA TYPHIMURIUM, Strain/Indicator: TA100, Metabolic Activation: HAMSTER, LIVER, S-9, AROCLOR 1254, Method: PREINCUBATION): inactive; negative
- mutagenic call [2]: inactive; negative
- mutagenic call (Test System: AMES SALMONELLA TYPHIMURIUM, Strain/Indicator: TA100, Metabolic Activation: RAT, LIVER, S-9, AROCLOR 1254, Method: PREINCUBATION): inactive; negative
- mutagenic call (Test System: AMES SALMONELLA TYPHIMURIUM, Strain/Indicator: TA1535, Metabolic Activation: HAMSTER, LIVER, S-9, AROCLOR 1254, Method: PREINCUBATION): inactive; negative
- mutagenic call [3]: inactive; negative
- mutagenic call (Test System: AMES SALMONELLA TYPHIMURIUM, Strain/Indicator: TA1535, Metabolic Activation: RAT, LIVER, S-9, AROCLOR 1254, Method: PREINCUBATION): inactive; negative
- mutagenic call (Test System: AMES SALMONELLA TYPHIMURIUM, Strain/Indicator: TA1537, Metabolic Activation: HAMSTER, LIVER, S-9, AROCLOR 1254, Method: PREINCUBATION): inactive; negative
- mutagenic call (Test System: AMES SALMONELLA TYPHIMURIUM, Strain/Indicator: TA1537, Metabolic Activation: NONE, Method: PREINCUBATION): inactive; negative
- mutagenic call (Test System: AMES SALMONELLA TYPHIMURIUM, Strain/Indicator: TA1537, Metabolic Activation: RAT, LIVER, S-9, AROCLOR 1254, Method: PREINCUBATION): inactive; negative

SMILES: COc1cc(OC)c2c(=O)c3cc(OC)ccc3oc2c1
- mutagenic call (Test System: AMES SALMONELLA TYPHIMURIUM, Strain/Indicator: TA97, Metabolic Activation: RAT, LIVER, S-9, PHENOBARBITAL AND 5,6-BENZOFLAVONE, Method: PREINCUBATION): active; positive
- mutagenic call (Test System: AMES SALMONELLA TYPHIMURIUM, Strain/Indicator: TA98, Metabolic Activation: RAT, LIVER, S-9, PHENOBARBITAL AND 5,6-BENZOFLAVONE, Method: PREINCUBATION): inactive; negative
- mutagenic call (Test System: AMES SALMONELLA TYPHIMURIUM, Strain/Indicator: TA100, Metabolic Activation: RAT, LIVER, S-9, PHENOBARBITAL AND 5,6-BENZOFLAVONE, Method: PREINCUBATION): active; positive
- mutagenic call (Test System: AMES SALMONELLA TYPHIMURIUM, Strain/Indicator: TA2637, Metabolic Activation: NONE, Method: PREINCUBATION): active; positive
- mutagenic call (Test System: AMES SALMONELLA TYPHIMURIUM, Strain/Indicator: TA2637, Metabolic Activation: RAT, LIVER, S-9, PHENOBARBITAL AND 5,6-BENZOFLAVONE, Method: PREINCUBATION): active; positive
